For this experiment, the target named is SIK2 (Homo sapiens, UniProt Q9H0K1). The experiment in a line: SIK2 Enzymatic Assay High Version 2 (High ATP). In kind it is biochemical. The note with it: enzyme 6 nM, 6 mM ATP and 400 μM HDAC5tide (each 2× final concentration); 30 minutes pre-incubation, 2 hours; ADP-Glo Max luminescence; read-out: SIK2 high ATP IC50 (μM) (Test Example 2). The method, boiled down: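 At room temperature, enzyme (6 nM, 2× final) was preincubated with compound for 30 min, then 6 mM ATP and 400 μM HDAC5tide (both 2× final) were added for 2 h. ADP formed was measured by ADP-Glo Max (2 h reagent, 1 h detection) using luminescence.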
SIK2, sequence (Q9H0K1 whole entry, species assumed): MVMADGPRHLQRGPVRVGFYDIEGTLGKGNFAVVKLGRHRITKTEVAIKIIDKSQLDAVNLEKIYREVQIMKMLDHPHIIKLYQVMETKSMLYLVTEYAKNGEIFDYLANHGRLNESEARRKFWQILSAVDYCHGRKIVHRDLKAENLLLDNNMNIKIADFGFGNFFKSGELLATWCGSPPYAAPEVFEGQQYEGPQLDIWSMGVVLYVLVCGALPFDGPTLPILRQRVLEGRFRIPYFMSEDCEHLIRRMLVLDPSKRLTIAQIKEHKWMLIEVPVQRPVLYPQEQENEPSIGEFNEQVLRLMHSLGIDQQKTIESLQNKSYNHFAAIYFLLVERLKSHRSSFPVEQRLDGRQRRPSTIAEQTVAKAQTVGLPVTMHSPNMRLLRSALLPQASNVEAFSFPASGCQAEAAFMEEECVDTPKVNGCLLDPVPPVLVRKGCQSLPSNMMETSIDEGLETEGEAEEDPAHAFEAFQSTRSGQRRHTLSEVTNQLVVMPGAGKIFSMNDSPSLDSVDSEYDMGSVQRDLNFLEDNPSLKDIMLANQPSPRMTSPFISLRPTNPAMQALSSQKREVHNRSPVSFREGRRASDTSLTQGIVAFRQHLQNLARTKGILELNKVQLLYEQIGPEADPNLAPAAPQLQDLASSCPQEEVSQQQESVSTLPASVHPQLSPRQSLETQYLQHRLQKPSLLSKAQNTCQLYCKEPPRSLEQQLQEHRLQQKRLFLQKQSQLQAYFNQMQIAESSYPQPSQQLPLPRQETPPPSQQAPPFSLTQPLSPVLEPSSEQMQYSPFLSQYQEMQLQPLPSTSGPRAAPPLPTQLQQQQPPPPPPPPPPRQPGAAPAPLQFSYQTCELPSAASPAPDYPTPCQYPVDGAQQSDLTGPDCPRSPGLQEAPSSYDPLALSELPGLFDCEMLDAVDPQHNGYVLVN
(In general: ADP-Glo first removes unused ATP, then detects ADP through luciferase.)

This passage reports IC50 results from patent US20240158392A1 (Janssen Biotech, Inc., priority 2021, published 2024).

`Cc1cc(-c2ccn3nc(Nc4nccc(C)c4F)cc3c2)c(OCC(C)(C)O)cn1` [Example 652, 1-[[4-[2-[(3-fluoro-4-methyl-2-pyridyl)amino]pyrazolo[1,5-a]pyridin-5-yl]-6-methyl-3-pyridyl]oxy]-2-methyl-propan-2-ol]: the IC50 (as a rule, the point on the concentration scale where inhibition reaches its midpoint) turned out to be 0.557 µM.
Next, `Cc1cc(-c2cn3cc(NC(=O)C4CC4)nc3cn2)c(O[C@H]2CC[C@H](O)CC2)cn1` [Example 653, N-[6-[5-(4-hydroxycyclohexoxy)-2-methyl-4-pyridyl]imidazo[1,2-a]pyrazin-2-yl]cyclopropanecarboxamide]: 0.136 µM.
The same measure for `Cc1cc(-c2cn3cc(NC(=O)C4CC4)nc3cn2)c(OC2CN(C)C2)cn1` [Example 654, N-[6-[2-methyl-5-(1-methylazetidin-3-yl)oxy-4-pyridyl]imidazo[1,2-a]pyrazin-2-yl]cyclopropanecarboxamide]: 0.0743 µM; for `Cc1cc(-c2cn3cc(NC(=O)C4CC4)nc3cn2)c(O[C@H]2CC[C@@H](O)CC2)cn1` [Example 655, N-[6-[5-(4-hydroxycyclohexoxy)-2-methyl-4-pyridyl]imidazo[1,2-a]pyrazin-2-yl]cyclopropanecarboxamide]: 0.0943 µM.
The same measure for `Cc1cc(-c2cn3cc(Nc4cncc(C)n4)nc3cn2)c(O[C@H]2CC[C@H](O)CC2)cn1` [Example 657, 4-[[6-methyl-4-[2-[(6-methylpyrazin-2-yl)amino]imidazo[1,2-a]pyrazin-6-yl]-3-pyridyl]oxy]cyclohexanol]: 0.984 µM.
Turning to `Cc1cc(Nc2cc3cc(-c4cc(OCC(F)(F)F)ncc4OCC(C)(C)C#N)ccn3n2)nc(C)n1` [Example 659, 3-[[4-[2-[(2,6-dimethylpyrimidin-4-yl)amino]pyrazolo[1,5-a]pyridin-5-yl]-6-(2,2,2-trifluoroethoxy)-3-pyridyl]oxy]-2,2-dimethyl-propanenitrile], the IC50 came out at 0.157 µM.
The same measure for `Cc1cc(Nc2cc3cc(-c4cc(OCC(F)F)ncc4OCC(C)(C)C#N)ccn3n2)nc(C)n1` [Example 660, 3-[[6-(2,2-difluoroethoxy)-4-[2-[(2,6-dimethylpyrimidin-4-yl)amino]pyrazolo[1,5-a]pyridin-5-yl]-3-pyridyl]oxy]-2,2-dimethyl-propanenitrile]: 0.184 µM; for `Cc1cc(Nc2cc3cc(-c4cc(OCC(F)(F)F)ncc4OCC(C)(C)O)ccn3n2)nc(C)n1` [Example 661, 1-[[4-[2-[(2,6-dimethylpyrimidin-4-yl)amino]pyrazolo[1,5-a]pyridin-5-yl]-6-(2,2,2-trifluoroethoxy)-3-pyridyl]oxy]-2-methyl-propan-2-ol]: 0.0749 µM; for `Cc1cc(Nc2cc3cc(-c4cc(OCC(F)(F)F)ncc4O[C@H]4CC[C@H](O)CC4)ccn3n2)nc(C)n1` [Example 664, 4-[[4-[2-[(2,6-dimethylpyrimidin-4-yl)amino]pyrazolo[1,5-a]pyridin-5-yl]-6-(2,2,2-trifluoroethoxy)-3-pyridyl]oxy]cyclohexanol]: 0.0953 µM.
Next, `CC(C)(C#N)COc1cnc(OC(F)F)cc1-c1ccn2nc(NC(=O)C3CC3)cc2c1` [Example 665, N-[5-[5-(2-cyano-2-methyl-propoxy)-2-(difluoromethoxy)-4-pyridyl]pyrazolo[1,5-a]pyridin-2-yl]cyclopropanecarboxamide]: 0.0244 µM; `CC(C)(C#N)COc1cnc(Cl)cc1-c1ccn2nc(NC(=O)C3CC3)cc2c1` [Example 666, N-[5-[2-chloro-5-(2-cyano-2-methyl-propoxy)-4-pyridyl]pyrazolo[1,5-a]pyridin-2-yl]cyclopropanecarboxamide]: 0.0555 µM.
Next, `Cc1cc(Nc2cc3cc(-c4cc(NCC(F)F)ncc4OCC(C)(C)C#N)ccn3n2)nc(C)n1` [Example 667, 3-[[6-(2,2-difluoroethylamino)-4-[2-[(2,6-dimethylpyrimidin-4-yl)amino]pyrazolo[1,5-a]pyridin-5-yl]-3-pyridyl]oxy]-2,2-dimethyl-propanenitrile]: 0.0127 µM; `COCc1cc(-c2ccn3nc(Nc4cc(C)nc(C)n4)cc3c2)c(OCC(C)(C)C#N)cn1` [Example 668, 3-[[4-[2-[(2,6-dimethylpyrimidin-4-yl)amino]pyrazolo[1,5-a]pyridin-5-yl]-6-(methoxymethyl)-3-pyridyl]oxy]-2,2-dimethyl-propanenitrile]: 0.319 µM; `CC(C)(C#N)COc1cnc(OCC(F)(F)F)cc1-c1ccn2nc(NC(=O)C3CC3)cc2c1` [Example 669, N-[5-[5-(2-cyano-2-methyl-propoxy)-2-(2,2,2-trifluoroethoxy)-4-pyridyl]pyrazolo[1,5-a]pyridin-2-yl]cyclopropanecarboxamide]: 0.0526 µM.
Regarding `CC#Cc1cc(-c2ccn3nc(Nc4cc(C)nc(C)n4)cc3c2)c(OCC(C)(C)C#N)cn1` [Example 670, 3-[[4-[2-[(2,6-dimethylpyrimidin-4-yl)amino]pyrazolo[1,5-a]pyridin-5-yl]-6-prop-1-ynyl-3-pyridyl]oxy]-2,2-dimethyl-propanenitrile], the IC50 is 0.0831 µM.
Next, `CC#Cc1cc(-c2ccn3nc(Nc4cc(C)nc(C)n4)cc3c2)c(OC[C@@H]2OCC[C@H]2O)cn1` [Example 671, (2S,3R)-2-[[4-[2-[(2,6-dimethylpyrimidin-4-yl)amino]pyrazolo[1,5-a]pyridin-5-yl]-6-prop-1-ynyl-3-pyridyl]oxymethyl]tetrahydrofuran-3-ol]: 0.204 µM; `Cc1cc(Nc2cc3cc(-c4cc(OCC#N)ncc4OCC(C)(C)C#N)ccn3n2)nc(C)n1` [Example 672, 3-[[6-(cyanomethoxy)-4-[2-[(2,6-dimethylpyrimidin-4-yl)amino]pyrazolo[1,5-a]pyridin-5-yl]-3-pyridyl]oxy]-2,2-dimethyl-propanenitrile]: 0.004 µM; `Cc1cc(Nc2cc3cc(-c4cc(OCCF)ncc4OCC(C)(C)C#N)ccn3n2)nc(C)n1` [Example 673, 3-[[4-[2-[(2,6-dimethylpyrimidin-4-yl)amino]pyrazolo[1,5-a]pyridin-5-yl]-6-(2-fluoroethoxy)-3-pyridyl]oxy]-2,2-dimethyl-propanenitrile]: 0.00229 µM.
Regarding `CNc1nc(C)cc(Nc2cc3cc(-c4cc(O)ncc4OCC(C)(C)C#N)ccn3n2)n1` [Example 674, 3-[[6-hydroxy-4-[2-[[6-methyl-2-(methylamino)pyrimidin-4-yl]amino]pyrazolo[1,5-a]pyridin-5-yl]-3-pyridyl]oxy]-2,2-dimethyl-propanenitrile], the IC50 worked out at 0.063 µM.
The same measure for `CNc1nc(C)cc(Nc2cc3cc(-c4cc(Cl)ncc4OCC(C)(C)C#N)ccn3n2)n1` [Example 675, 3-[[6-chloro-4-[2-[[6-methyl-2-(methylamino)pyrimidin-4-yl]amino]pyrazolo[1,5-a]pyridin-5-yl]-3-pyridyl]oxy]-2,2-dimethyl-propanenitrile]: 0.0391 µM.
The same measure for `CNc1nc(C)cc(Nc2cc3cc(-c4cc(OC(F)F)ncc4OCC(C)(C)C#N)ccn3n2)n1` [Example 676, 3-[[6-(difluoromethoxy)-4-[2-[[6-methyl-2-(methylamino)pyrimidin-4-yl]amino]pyrazolo[1,5-a]pyridin-5-yl]-3-pyridyl]oxy]-2,2-dimethyl-propanenitrile]: 0.108 µM.
